Assay results as given in patent US4235923A, “Esters of 3-substituted-2-(aminocarbonyl)oxiranecarboxylic acids as lipogenesis inhibitors” (Shell Oil Company, priority 1979, dated 1980).

tested on: lipogenesis in swine adipose tissue; assay: inhibition of lipogenesis (incorporation of radioactive glucose carbon into lipid) in slices of swine adipose tissue; format: cell-based; conditions: 100 micrograms per milliliter, 37° C., 2 hours, glucose-U^14 C, insulin, 5% DMSO, triplicate
From the text: The manner in which they cause this effect is not known with certainty; it is believed that they interfere with the synthesis of fatty acids in the tissues. Their effectiveness for this purpose has been ascertained by immersing samples of swine adipose tissue in a liquid medium containing radioactive glucose and the test chemical, for a period of time, then isolating the lipid from the treated tissue and determining the incorporation of the radioactive carbon into lipid by means of scintillation counting techniques. These tests were conducted in swine adipose tissue because in swine, the primary site of lipogensis--i.e., fatty acid synthesis--appears to be adipose tissue.
Described in more detail, the tests were conducted according to the following general procedure:
150 milligrams of slices of swine adipose tissue were incubated at 37° C. for 2 hours with shaking in 3 milliliters of Krebs-Ringer bicarbonate solution containing one-half the normal calcium ion concentration, 60 micromoles of glucose, 0.5 micro-Curie of glucose-U^14 C, and 300 microunits of insulin, and 5% dimethyl sulfoxide (DMSO). The test compounds were added as suspensions or solutions in DMSO and were present at a concentration of 100 micrograms per milliliter of the incubation mixture.
The incubation was terminated by addition of 0.25 milliliter of 1 N sulfuric acid. The resulting mixture was extracted with a total of 25 milliliters of chloroform: methanol (2:1 v/v). The extracts were washed according to Folch et al. (J. Biol. Chem., 226, 497-509, (1957)), air dried, and counted in a liquid scintillation counter with 15 milliliters of counting fluid (two parts toluene containing 0.4% w/v New England Nuclear Omnifluor: 1 part Triton X-100). The tests were conducted in triplicate and were accompanied by control tests in which all ingredients,proportions and conditions were the same except that no test compound was included. From the data obtained were calculated the percent inhibition of lipid synthesis by the test compound in each case. The data obtained from the tests are set out in Table 1, as the percent inhibition of lipogenesis compared to the results obtained in the control tests wherein only the test compound was omitted.

**Q.** Which “Percent Inhibition (of lipogenesis compared to control)” value does the source give for `CCCCCCC1OC1(C(N)=O)C(=O)OCC` (stereo not drawn) [Compound 2, Ethyl 2-(aminocarbonyl)-3-hexyloxiranecarboxylate cis] here?
**A.** The value was 83%.

same assay, conditions: Sus scrofa, 2 h, 100 micrograms per milliliter, 37° C., glucose-U^14 C, insulin, 5% DMSO, triplicate, read-out: Percent Inhibition (of lipogenesis compared to control)

**Q.** For `CCCCCCC1OC1(C(N)=O)C(=O)OCC` (stereo not drawn) [Compound 1, Ethyl 2-(aminocarbonyl)-3-hexyloxiranecarboxylate trans], which inhibition at 100 µg/mL is on record?
**A.** Its inhibition at 100 µg/mL is 88%.

**Q.** For `CCOC(=O)C1(C(N)=O)OC1C` (stereo not shown) [Compound 3, Ethyl 2-(aminocarbonyl)-3-methyloxiranecarboxylate], which inhibition at 100 µg/mL is on record?
**A.** The inhibition at 100 µg/mL was 18%.

**Q.** `CCOC(=O)C1(C(N)=O)OC1C1CCCCC1` (stereo not shown) [Compound 4, Ethyl 2-(Aminocarbonyl)-3-cyclohexyloxiranecarboxylate] was tested. Which inhibition at 100 µg/mL did it give?
**A.** The inhibition at 100 µg/mL was 75%.

**Q.** `CCOC(=O)C1(C(N)=O)OC1c1ccccc1` (stereo not shown) [Compound 5, Ethyl 2-(aminocarbonyl)-3-phenyloxiranecarboxylate] was tested. Which inhibition at 100 µg/mL did it give?
**A.** The inhibition at 100 µg/mL was 85%.

**Q.** `CCOC(=O)C1(C(=O)NC)OC1c1ccccc1` (stereo not shown) [Compound 6] was tested. Which inhibition at 100 µg/mL did it give?
**A.** Its inhibition at 100 µg/mL is 27%.

**Q.** With `CC(C)OC(=O)C1(C(N)=O)OC1c1ccccc1` (stereo not shown) [Compound 7, 1-Methylethyl 2-(aminocarbonyl)-3-phenyloxiranecarboxylate] as the compound, how does the inhibition at 100 µg/mL read?
**A.** Its inhibition at 100 µg/mL is 48%.

**Q.** How did the inhibition at 100 µg/mL turn out when `COC(=O)C1(C(N)=O)OC1c1ccccc1` (stereo not shown) [Compound 8, Methyl 2-(aminocarbonyl)-3-phenyloxiranecarboxylate] was run?
**A.** Its inhibition at 100 µg/mL is 47%.

**Q.** For `CCOC(=O)C1(C(N)=O)OC1c1ccc(Cl)cc1` (stereo not shown) [Compound 9], which inhibition at 100 µg/mL is on record?
**A.** Its inhibition at 100 µg/mL is 65%.

**Q.** Which inhibition at 100 µg/mL does the source give for `CCOC(=O)C1(C(N)=O)OC1c1ccc(C)cc1` (stereo not shown) [Compound 10] here?
**A.** Its inhibition at 100 µg/mL is 37%.

**Q.** For `CCOC(=O)C1(C(N)=O)OC1c1ccc(OC)c(OC)c1` (stereo not shown) [Compound 11], which inhibition at 100 µg/mL is on record?
**A.** The inhibition at 100 µg/mL was 33%.

**Q.** For `CCOC(=O)C1(C(N)=O)OC1c1cccc([N+](=O)[O-])c1` (stereo not shown) [Compound 12], which inhibition at 100 µg/mL is on record?
**A.** The inhibition at 100 µg/mL was 76%.

**Q.** Which inhibition at 100 µg/mL does the source give for `CCOC(=O)C1(C(N)=O)OC1c1ccc(Cl)c(Cl)c1` (stereo not shown) [Compound 13] here?
**A.** The inhibition at 100 µg/mL was 87%.

**Q.** How did the inhibition at 100 µg/mL turn out when `CCOC(=O)C1(C(N)=O)OC1c1ccc(OC)cc1` (stereo not shown) [Compound 14] was run?
**A.** Its inhibition at 100 µg/mL is 55%.

**Q.** With `CCOC(=O)C1(C(N)=O)OC1c1ccc([N+](=O)[O-])cc1` (stereo not shown) [Compound 15] as the compound, how does the inhibition at 100 µg/mL read?
**A.** Its inhibition at 100 µg/mL is 37%.

**Q.** Which inhibition at 100 µg/mL does the source give for `CCOC(=O)C1(C(N)=O)OC1C(=O)c1ccccc1` (stereo not shown) [Compound 16, Ethyl 2-(aminocarbonyl)-3-benzoyloxiranecarboxylate] here?
**A.** The inhibition at 100 µg/mL was 74%.
